Experiments:
skin of pigs' ears = test: Ex vivo penetration of composition into skin of pigs' ears (fluorescent marker histology); type: in vitro ADME; settings: Nile red marker; pig ear skin, 20 hours at 32° C.
Procedure: The distribution of nano-elements of the present compositions in various skin layers was tested ex vivo by applying core-shell and core-multi-shells (including a second shell forming active agent) nano-elements onto the skin of pigs' ears, the cores of the tested compositions including a fluorescent dye (Nile red) allowing histological monitoring.
The following test and control compositions were prepared and used as set in Table 9.
Tested compositions (2) and (3) were prepared by adding 2 mg of Nile red fluorescent marker during the preparation of the CSSC/fatty amine premix, as described in Example 6. All tested compositions were stored in closed containers at room temperature until they were used.
The compositions were tested on three freshly harvested pig ears, collected on the same day, and kept fresh and cooled till use. The ears were washed with excess saline solution and wiped dry. They were then immobilized for the duration of the study by taping them onto a glass surface, their inner side facing down. Each ear was marked on its outer side with 6 circles having a diameter of about 1 cm. […]
The above tissue sections were evaluated by an expert for the presence and intensity of the marker using a fluorescence microscope at objective magnification of ×10 and ×20.

[1] = Zeta potential measurement (Malvern Zetasizer Nano ZS); type: physicochemical; settings: 0.1 g dispersed in 9.9 g of distilled water
Procedure: • Oven: DFO-240, by MRC, Israel • Thermo-rheometer: Thermo Scientific (Germany) Haake Mars III, with a C20/1° spindle, a gap of 0.052 mm, and a shear rate of 10 sec^−1 • Sonicator: VCX 750, by Sonics & Materials, USA • Dynamic Light Scattering and Zeta Potential measurement: Malvern Zetasizer Nano ZS, Malvern Instruments Ltd., UK • Conductivity meter: Eutech CON 700 by Thermo Fisher Scientific, USA • CryoTEM: Talos 200C by Thermo Fisher Scientific, USA, with a Lacey grid • Fluorescence microscope: BX60 microscope, equipped with a digital camera model DP73, by Olympus, Japan
8 g of double distilled water were placed in a 20 ml glass vial. 2 g of the nano-dispersion ND1 obtained in Example 2 were added, and the contents of the vial were shaken by hand for about 10 seconds until a homogeneous mixture was obtained (referred to as charged ND1 or cND1). Zeta potential of the mixture was measured by Malvern Zetasizer Nano ZS and found to be −14.7 mV. Unless otherwise stated, all measurements made with this instrument (e.g., zeta potential and particle size distribution) were performed on samples diluted 1:100 in double distilled water. All pH measurements reported in this and following examples were made at least using a pH test strip adapted to the pH range of relevance, and confirmed in some cases by using a suitable pH meter.

For `CCN(CC)c1ccc2nc3c4ccccc4c(=O)cc-3oc2c1` [Nile red, 9-(diethylamino)-5H-benzo[a]phenoxazin-5-one], the “penetration into skin layers (fluorescence microscopy)” value (skin of pigs' ears) was “No penetration of the fluorescent marker was observed”.
With Sodium hyaluronate [LMW HA] the “Zeta potential of active agent alone” value [1] was −17 mV.
